From patent publication US9028856B2, “Synergistic pesticide compositions” (priority 2008, dated 2015)

How the values were obtained:
[1] = test system: Odorous House ant, Tapinoma sessile; assay: Knockdown/mortality of ant workers under continuous exposure on treated glazed tile; format: in vivo; conditions: Table 35, thiamethoxam/adjuvant in acetone, glazed tile
Source text: Actual coverage was about 5″×5″ (or 161 cm2) for easy handling. Treatments were allowed to dry overnight. […] Treatments were replicated minimum three times.
(§1) Treatments were allowed to dry overnight. […] Treatments were replicated minimum three times.
(§2) Treatments were allowed to dry overnight. […] Treatments were replicated a minimum of three times.
Treatments were allowed to dry overnight. […] Treatments were replicated minimum of three times. […] The results are shown in FIG. 84 (No adjuvant alone treatment was performed).

[2] = test system: susceptible/normal German cockroach (Monheim strain), Blattella germanica; assay: Knockdown/mortality of male cockroaches under continuous exposure on treated glazed tile; format: in vivo; conditions: Table 36, thiamethoxam/adjuvant in acetone, glazed tile, Monheim strain
Experimental: Treatments were allowed to dry overnight. […] Treatments were replicated a minimum of three times. […]
Treatments were allowed to dry overnight. […] Treatments were replicated a minimum of three times. Cockroach knockdown/mortality was evaluated at 5 minute intervals for the first 60 minutes after exposure and then at 2, 18 and 24 hours.

Aedes aegypti mosquito = assay: USDA Petri Dish Method, 3 min exposure to treated glazed tile; format: in vivo; conditions: Table 33, thiamethoxam/adjuvant in acetone, glazed tile, 3 min exposure
Experimental: (§3) Treatments were allowed to dry overnight. USDA Petri Dish Method was used as initial screening protocol. Twenty, 4-6 day old female Aedes aegypti mosquitoes were exposed to each treatment for 3 minutes and then moved to a clean untreated white paper index card. Treatments were replicated a minimum of three times. Mosquito knockdown was evaluated at various intervals through 7 hours after exposure. A small cotton ball soaked in sucrose solution was added on the screen top of the petri-dish as a drinking source. Mortality was evaluated at 24 hours after exposure.
MATERIALS AND METHODS: Solutions of resmethrin at 1 and 0.5% AI were prepared with and without adjuvant in acetone. […] USDA Petri Dish Method was used as initial screening protocol. Twenty, 4-6 day old female Aedes aegypti mosquitoes were exposed to each treatment for 3 minutes and then moved to a clean untreated white paper index card. Treatments were replicated a minimum of three times. Mosquito knockdown was evaluated at 3 minute intervals for the first 15 minutes and then at 5 minute intervals for the remainder of an hour. A small cotton ball soaked in sucrose solution was added on the screen top of the petri-dish as a drinking source. Mortality was evaluated at 24 hours after exposure.
as §3, with “6” for “7”
as §3, with “5 minute” for “various”, “for the first hour and then at 2, 4 and 6 hours.” for “through 7 hours after exposure.”
Treatments were allowed to dry overnight. USDA Petri Dish Method was used as initial screening protocol. Twenty, 4-6 day old female Aedes aegypti mosquitoes were exposed to each treatment for 3 minutes and then moved to a clean untreated white paper index card. Treatments were replicated a minimum of three times. Mosquito knockdown was evaluated at 3-5 minute intervals for the first hour. A small cotton ball soaked in sucrose solution was then added on the screen top of the petri-dish as a drinking source. Mortality was evaluated at 24 hours after exposure.
as §3, with “intervals through 2 hours after” for “intervals through 7 hours after”, “solution was then added on” for “solution was added on”
Treatments were allowed to dry overnight. USDA Petri Dish Method was used as initial screening protocol. Twenty, 4-6 day old female Aedes aegypti mosquitoes were exposed to each treatment for 3 minutes and then moved to a clean untreated white paper index card. Treatments were replicated a minimum of three times. Mosquito knockdown was evaluated at various hourly intervals. […]

[3] = test system: Argentine ant, Linepithema humile; assay: Knockdown/mortality of ant workers under continuous exposure on treated glazed tile; conditions: for Average % Mortality after 15 min / Average % Mortality after 3 hr / Average % Mortality after 21 hr: Table 34, thiamethoxam/adjuvant in acetone; for toxicity / efficacy of the substance alone (summary in words): Argentine ant, treated glazed tile
Experimental: (§4) Solutions of imidacloprid at 0.5% AI were prepared with and without methyl oleate @0.1, 1.0 and 5.0% in acetone. Treatments were applied using a micropipette to dispense 1 ml of test solution evenly on a 6″×6″ glazed tile. Actual coverage was about 5″×5″ (or 161 cm^2) for easy handling. Treatments were allowed to dry overnight. Ten Argentine ant workers were placed within a fluon or talc-coated PVC ring (φ7.6 cm×H 5.1 cm) under continuous exposure. A small vial filled with a cotton ball soaked in water was added as a drinking source after 3 hours. Treatments were replicated a minimum of three times. Evaluations for ant knockdown/mortality were made at various intervals and at 24 hours after exposure.
as §4, with “MATERIALS AND METHODS: Solutions” for “Solutions”, “linoleate” for “oleate”
as §4, with “MATERIALS AND METHODS: Solutions of” for “Solutions of”, “without methyl palmitate @0.1, 1.0” for “without methyl oleate @0.1, 1.0”, “after exposure. […]” for “after exposure.”

[4] = test system: Red Imported Fire ant (RIFA), Solenopsis invicta; assay: as above; format: in vivo; conditions: Table 72, β-cyfluthrin study, Red Imported Fire ant; for Average % Mortality after 15 min: glazed tile, continuous exposure, adjuvant = Compound A 1% + Compound B 0.5%
Source text: as §1, §2

[5] = test system: bait averse/resistant German cockroach (T-164 strain); assay: Knockdown/mortality of male cockroaches under continuous exposure on treated glazed tile; format: in vivo, Blattella germanica; conditions: for toxicity / efficacy of the substance alone (summary in words): German cockroach T-164, treated glazed tile
[6] = Table 10 (Ex. 7), glazed tile, continuous exposure, listed as Methyl Linoleate (1%)
[7] = Table 10 (Ex. 7), glazed tile, continuous exposure, listed as Methyl Linoleate (5%)

Row | Compound | Average % Knockdown & Mortality after 15 min [1] [%] | Average % Knockdown & Mortality after 30 min [1] [%] | Average % Knockdown & Mortality after 60 min [1] [%] | Average % Knockdown & Mortality after 2 hr [1] [%] | Average % Knockdown & Mortality after 20 hr [1] [%] | Average % Knockdown & Mortality after 30 min [2] [%] | Average % Knockdown & Mortality after 60 min [2] [%] | Average % Knockdown & Mortality after 90 min [2] [%] | Average % Knockdown & Mortality after 3 hr [2] [%] | Average % Knockdown & Mortality after 24 hr [2] [%] | Average % Knockdown & Mortality after 2 hr (Aedes aegypti mosquito) [%] | Average % Knockdown & Mortality after 3 hr (Aedes aegypti mosquito) [%] | Average % Knockdown & Mortality after 7 hr (Aedes aegypti mosquito) [%] | Average % Knockdown & Mortality after 24 hr (Aedes aegypti mosquito) [%] | Average % Mortality after 15 min ([3]; glazed tile) [%] | Average % Mortality after 3 hr ([3]; glazed tile) [%] | Average % Mortality after 21 hr ([3]; glazed tile) [%] | further results
1 | CN1COCN(Cc2cnc(Cl)s2)/C1=N\[N+](=O)[O-] [Thiamethoxam (1%)] | 0 | 0 | 0 | 21 | 65 | 13 | 73 | 80 | 93 | 100 | 2 | 2 | 4 | 4 | 3 | 34 | 100 | 
2 | CC1(C)C(C=C(Cl)Cl)C1C(=O)OC(C#N)c1ccc(F)c(Oc2ccccc2)c1 (stereo not drawn) [β-cyfluthrin (.001%)] |  |  |  |  |  |  |  |  |  |  |  |  |  |  |  |  |  | Average % Mortality after 15 min [4]: 39%; Average % Mortality after 30 min [4]: 100%; Average % Mortality after 60 min [4]: 100%; Average % Mortality after 24 hr [4]: 100%
3 | CC1(C)C(C=C(Cl)Cl)C1C(=O)OC(C#N)c1ccc(F)c(Oc2ccccc2)c1 (stereo not drawn) [β-cyfluthrin (.005%)] |  |  |  |  |  |  |  |  |  |  |  |  |  |  |  |  |  | Average % Mortality after 15 min [4]: 100%; Average % Mortality after 30 min [4]: 100%; Average % Mortality after 60 min [4]: 100%; Average % Mortality after 24 hr [4]: 100%
4 | CN1COCN(Cc2cnc(Cl)s2)/C1=N\[N+](=O)[O-] [Thiamethoxam (0.01%)] | 0 | 0 | 0 | 9 | 71 | 13 | 67 | 87 | 100 | 100 | 0 | 0 | 0 | 0 | 0 | 19 | 100 | 
5 | CN1COCN(Cc2cnc(Cl)s2)/C1=N\[N+](=O)[O-] [Thiamethoxam (0.1%)] | 0 | 0 | 0 | 3 | 33 | 7 | 73 | 93 | 100 | 100 | 0 | 0 | 0 | 0 | 12 | 46 | 100 | 
6 | c1ccc(Cc2ccccc2)cc1 [Diphenyl methane, diphenyl methane] |  |  |  |  |  |  |  |  |  |  |  |  |  |  |  |  |  | toxicity / efficacy of the substance alone (summary in words) [5]: not toxic; Average % Knockdown & Mortality after 3 hr ([5]; Table 21 (Ex. 18), glazed tile, continuous exposure): 0%; toxicity / efficacy of the substance alone (summary in words) [3]: not toxic; Average % Knockdown & Mortality after 2 hr ([3]; Table 20 (Ex. 17), glazed tile, continuous exposure): 0%; Average % Knockdown & Mortality after 4 hr ([3]; Table 20 (Ex. 17), glazed tile, continuous exposure, listed as Diphenyl methane (DPM) (0.1%)): 13%; Average % Knockdown & Mortality after 4 hr ([3]; Table 20 (Ex. 17), glazed tile, continuous exposure, listed as Diphenyl methane (DPM) (5%)): 0%
7 | CCCCC/C=C\C/C=C\CCCCCCCC(=O)OC [Methyl linoleate, methyl linoleate] |  |  |  |  |  |  |  |  |  |  |  |  |  |  |  |  |  | toxicity / efficacy of the substance alone (summary in words) [5]: toxic; Average % Knockdown & Mortality after 15 min ([5]; Table 11 (Ex. 8), glazed tile, continuous exposure): 0%; toxicity / efficacy of the substance alone (summary in words) [3]: at high rates (1 & 5%) was toxic; Average % Knockdown & Mortality after 4 hr ([3]; Table 10 (Ex. 7), glazed tile, continuous exposure, listed as Methyl Linoleate (0.1%)): 0%; Average % Knockdown & Mortality after 15 min [3, 6]: 0%; Average % Knockdown & Mortality after 4 hr [3, 6]: 7%; Average % Knockdown & Mortality after 15 min [3, 7]: 7%; Average % Knockdown & Mortality after 4 hr [3, 7]: 67%
